Patent US20220388962A1 (Biohaven Therapeutics Ltd., priority 2019, published 2022)
pIC50: −log10 of the molar value. Structures can show the parent of a compound that is named as a salt.

Molecular target: TDP-43 (Homo sapiens, UniProt Q13148)
Assay: TDP-43-DNA alpha-screen assay (bt-TAR-32 displacement)
Type: binding
Conditions: bt-TAR-32 0.125 nM, 15 ng/ml TDP-43
Protocol: Alpha-screen assay: Displacement of bt-TG6 binding was measured using AlphaScreen technology as previously described (Cassel, J. A. et al., Journal of Biomolecular Screening, 2010, 15, 1099-1106; Cassel, J. A.; Reitz, A. B. et al. The effects of small molecule inhibitors of nucleic acid binding to TDP-43 on TDP-43 metabolism and function. Biochimie, 2012, 94, 1974-1981).
Test compounds were diluted in assay buffer (25 mM Tris [pH 7.4], 0.1% bovine serum albumin [BSA], 0.1% Triton X-100) at 4× the desired final concentration. Dilutions of test compound (50 to 0.02 μM in half-log dilutions with a no compound control well) were pre-incubated with TDP-43 (5 μl of 60 ng/mL) pre-bound to AlphaScreen® anti-GST acceptor beads (5 μl of 40 μg/mL) in 15 μl volume for 30 minutes at 23° C. with shaking. Assays were initiated by the addition of 5 μl bt-TAR-32 (5′-CTGCTTTTTGCCTGTACTGGGTCTCTGTGGTT-3′) 0.5 nM pre-bound to AlphaScreen® strepavidin donor beads (40 μg/mL). After incubation in the dark at 23° C. for 90 minutes with shaking, the AlphaScreen® signal was measured on a Synergy 2 plate reader (BioTek, Winooski, Vt.). IC50 values were determined from nonlinear regression fits of the data to a Sigmoidal dose response variable slope model in GraphPad Prism. Final assay conditions are 25 mM Tris [pH 7.4], 0.1% bovine serum albumin [BSA], 0.100 Triton X-100, 15 ng/ml TDP-43, 0.125 nM bTAR32, 10 ug/ml […].

Chain of TDP-43 (Q13148 whole entry): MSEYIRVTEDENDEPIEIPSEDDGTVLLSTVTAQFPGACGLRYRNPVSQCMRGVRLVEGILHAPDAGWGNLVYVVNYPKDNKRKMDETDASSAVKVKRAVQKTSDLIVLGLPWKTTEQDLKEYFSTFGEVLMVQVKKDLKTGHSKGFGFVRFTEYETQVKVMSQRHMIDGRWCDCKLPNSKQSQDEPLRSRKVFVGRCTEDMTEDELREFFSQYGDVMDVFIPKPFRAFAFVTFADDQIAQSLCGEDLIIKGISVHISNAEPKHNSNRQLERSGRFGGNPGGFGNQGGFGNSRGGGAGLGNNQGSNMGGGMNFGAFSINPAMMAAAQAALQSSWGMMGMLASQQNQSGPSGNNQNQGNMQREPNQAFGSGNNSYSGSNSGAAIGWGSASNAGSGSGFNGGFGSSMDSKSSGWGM

Compound | pIC50
CN(CCCN)CCCNc1cc(-c2ccc(N3CCNCC3)cc2)nc2ccccc12 [Example 29, N^1-(3-aminopropyl)-N^1-methyl-N^3-(2-(4-(piperazin-1-yl)phenyl)quinolin-4-yl)propane-1,3-diamine] | 7.10
COc1ccc(-c2cc(NCCCN3CC4CCN(C(=O)OC(C)(C)C)CC4C3)c3ccccc3n2)cc1 (centres unmarked) [Example 35, tert-Butyl 2-(3-((2-(4-methoxyphenyl)quinolin-4-yl)amino)propyl) hexahydro-1H-pyrrolo[3,4-c]pyridine-5(6H)-carboxylate] | 5.57
COc1ccc(-c2cc(NCCCNC3CCN(Cc4ccc(F)cc4)CC3)c3ccccc3n2)cc1 [Example 40, N^1-(1-(4-Fluorobenzyl)piperidin-4-yl)-N^3-(2-(4-methoxyphenyl)quinolin-4-yl)propane-1,3-diamine] | 6.52
COc1ccc(-c2cc(NCCCN3CCC4(C3)CN(C(=O)OC(C)(C)C)C4)c3ccccc3n2)cc1 [Example 41, tert-Butyl 6-(3-((2-(4-methoxyphenyl)quinolin-4-yl)amino)propyl)-2,6-diaza spiro[3.4]octane-2-carboxylate] | 5.83
COc1ccc(-c2cc(NCCCNCCC3CCCCN3C(=O)OC(C)(C)C)c3ccccc3n2)cc1 (centres unmarked) [Example 44, tert-Butyl 2-(2-((3-((2-(4-methoxyphenyl)quinolin-4-yl)amino)propyl)amino)ethyl)piperidine-1-carboxylate] | 5.68
COc1ccc(-c2cc(NCCCNS(=O)(=O)c3ccc(-c4nn[nH]n4)cc3)c3ccccc3n2)cc1 [Example 49, N-(3-((2-(4-Methoxyphenyl)quinolin-4-yl)amino)propyl)-4-(2H-tetrazol-5-yl)benzene sulfonamide] | 5.14
COc1ccc(-c2cc(NCCCNc3ccc(-c4nn[nH]n4)cc3)c3ccccc3n2)cc1 [Example 50, N^1-(4-(2H-Tetrazol-5-yl)phenyl)-N^3-(2-(4-methoxyphenyl)quinolin-4-yl) propane-1,3-diamine] | 4.82
CCN(CC)CC(O)CNCCCNc1cc(-c2ccc(OC)cc2)nc2ccccc12 (centres unmarked) [Example 52, 1-(Diethylamino)-3-((3-((2-(4-methoxyphenyl)quinolin-4-yl)amino)propyl)amino)propan-2-ol dihydrochloride] | 6.77
COc1ccc(-c2cc(NCCCNCc3ccnn3C)c3ccccc3n2)cc1 [Example 53, N^1-(2-(4-Methoxyphenyl)quinolin-4-yl)-N^3-((1-methyl-1H-pyrazol-5-yl)methyl) propane-1,3-diamine dihydrochloride] | 5.49
COc1ccc(-c2cc(NCCCNCCc3ccccn3)c3ccccc3n2)cc1 [Example 54, N^1-(2-(4-methoxyphenyl)quinolin-4-yl)-N^3-(2-(pyridin-2-yl)ethyl)propane-1,3-diamine hydrochloride] | 5.72
COc1ccc(-c2cc(NCCCNc3ccc(N4CCCCC4)cc3)c3ccccc3n2)cc1 [Example 55, N^1-(2-(4-Methoxyphenyl)quinolin-4-yl)-N^3-(4-(piperidin-1-yl)phenyl) propane-1,3-diamine dihydrochloride] | 6.01
COc1ccc(-c2cc(NCCCNCCc3c[nH]c4cc(OC)ccc34)c3ccccc3n2)cc1 [Example 57, N-(3-(2-(6-Methoxy-1H-indol-3-yl)ethylamino)propyl)-2-(4-methoxyphenyl) quinolin-4-amine] | 6.59
COc1ccc(-c2cc(NCCCN(CC3CCN(C(=O)OC(C)(C)C)CC3)CC3CCN(C(=O)OC(C)(C)C)CC3)c3ccccc3n2)cc1 [Example 58, tert-Butyl 4-{[({1-[(tert-butoxy)carbonyl]piperidin-4-yl}methyl)(3-{[2-(4-methoxyphenyl)-quinolin-4-yl]amino}propyl)amino]methyl}piperidine-1-carboxylate] | 4.57
COc1ccc(-c2cc(NCCCN(CC3CCNCC3)CC3CCNCC3)c3ccccc3n2)cc1 [Example 59, N-(3-(Bis((piperidin-4-yl)methyl)amino)propyl)-2-(4-methoxyphenyl) quinolin-4-amine] | 7.00
COc1ccc(-c2cc(NC3CCC(NCCCNC(=O)OC(C)(C)C)CC3)c3ccccc3n2)cc1 (centres unmarked) [Example 61, tert-Butyl(3-((4-((2-(4-methoxyphenyl)quinolin-4-yl)amino)cyclohexyl)amino)propyl)carbamate] | 5.87

Further lines, results first:

pIC50 | Compound
6.46 | COc1ccc(-c2cc(NCCCN(C)CC3CCN(C)CC3)c3ccccc3n2)cc1 [Example 30, N^1-(2-(4-methoxyphenyl)quinolin-4-yl)-N^3-methyl-N^3-((1-methylpiperidin-4-yl)methyl)propane-1,3-diamine]
6.46 | COc1ccc(-c2cc(NCCCN(C)CCC3CCCCN3)c3ccccc3n2)cc1 (centres unmarked) [Example 31, N^1-(2-(4-methoxyphenyl)quinolin-4-yl)-N^3-methyl-N^3-(2-(piperidin-2-yl)ethyl)propane-1,3-diamine]
6.74 | COc1ccc(-c2cc(NCCCNC3CCC4CNCC43)c3ccccc3n2)cc1 (centres unmarked) [Example 33, N^1-(2-(4-Methoxyphenyl)quinolin-4-yl)-N^3-(octahydrocyclopenta[c]pyrrol-4-yl)propane-1,3-diamine dihydrochloride]
6.68 | COc1ccc(-c2cc(NCCCN3CC4CCC(N)C4C3)c3ccccc3n2)cc1 (centres unmarked) [Example 34, N-(3-(4-Aminohexahydrocyclopenta[c]pyrrol-2(1H)-yl)propyl)-2-(4-methoxyphenyl)quinolin-4-amine trihydrochloride]
6.82 | COc1ccc(-c2cc(NCCCN3CC4CCNCC4C3)c3ccccc3n2)cc1 (centres unmarked) [Example 36, N-(3-(Hexahydro-1H-pyrrolo[3,4-c]pyridin-2(3H)-yl)propyl)-2-(4-methoxyphenyl)quinolin-4-amine dihydrochloride]
6.66 | COc1ccc(-c2cc(NCCCN(C)CC3CCN(CC4CC4)CC3)c3ccccc3n2)cc1 [Example 38, N^1-((1-(Cyclopropylmethyl)piperidin-4-yl)methyl)-N^3-(2-(4-methoxyphenyl)quinolin-4-yl)-N^1-methylpropane-1,3-diamine]
6.89 | COc1ccc(-c2cc(NCCC3CCCCN3CCCN)c3ccccc3n2)cc1 (centres unmarked) [Example 39, N-(2-(1-(3-Aminopropyl)piperidin-2-yl)ethyl)-2-(4-methoxyphenyl) quinolin-4-amine dihydrochloride]
6.64 | COc1ccc(-c2cc(NCCCN3CCC4(CNC4)C3)c3ccccc3n2)cc1 [Example 42, N-(3-(2,6-Diazaspiro[3.4]octan-6-yl)propyl)-2-(4-methoxyphenyl)quinolin-4-amine]
5.92 | COc1ccc(-c2cc(NCCCN3CCCN(C)CC3)c3ccccc3n2)cc1 [Example 43, 2-(4-Methoxyphenyl)-N-(3-(4-methyl-1,4-diazepan-1-yl)propyl)quinolin-4-amine]
6.15 | COc1ccc(-c2cc(NCCCNCCC3CCCCN3)c3ccccc3n2)cc1 (centres unmarked) [Example 45, N^1-(2-(4-methoxyphenyl)quinolin-4-yl)-N^3-(2-(piperidin-2-yl)ethyl)propane-1,3-diamine]
6.44 | COc1ccc(-c2cc(NCCCN3CCN(CCCN)CC3)c3ccccc3n2)cc1 [Example 46, N-(3-(4-(3-Aminopropyl)piperazin-1-yl)propyl)-2-(4-methoxyphenyl)quinolin-4-amine hydrochloride]
5.39 | COc1ccc(-c2cc(NCCCN(C)CC3CCN(C(=O)OC(C)(C)C)CC3)c3ccccc3n2)cc1 [Example 47, tert-Butyl 4-{[(3-{[2-(4-methoxyphenyl)quinolin-4-yl]amino}propyl)(methyl)amino]methyl}piperidine-1-carboxylate]
7.00 | COc1ccc(-c2cc(NCCCN(C)CC3CCNCC3)c3ccccc3n2)cc1 [Example 48, N-(3-(N-Methyl-N-((piperidin-4-yl)methyl)amino)propyl)-2-(4-methoxyphenyl)quinolin-4-amine]
5.83 | COc1ccc(-c2cc(NCCCN3CCC(CO)CC3)c3ccccc3n2)cc1 [Example 51, (1-(3-((2-(4-Methoxyphenyl)quinolin-4-yl)amino)propyl)piperidin-4-yl) methanol]
6.52 | COc1ccc(-c2cc(NCC3CCCN(CCCN)C3)c3ccccc3n2)cc1 (centres unmarked) [Example 56, N-((1-(3-Aminopropyl)piperidin-3-yl)methyl)-2-(4-methoxyphenyl)quinolin-4-amine]
5.71 | COc1ccc(CN(C)CCCNc2cc(-c3ccc(OC)cc3)nc3ccccc23)cc1 [Example 60, N^1-(4-Methoxybenzyl)-N^3-(2-(4-methoxyphenyl)quinolin-4-yl)-N^1-methyl propane-1,3-diamine]
5.94 | COc1ccc(-c2cc(NCCCNCC3CCN(C(=O)OC(C)(C)C)CC3)c3ccccc3n2)cc1 [Example 62, tert-Butyl 4-{[(3-{[2-(4-methoxyphenyl)quinolin-4-yl]amino}propyl)amino]methyl}piperidine-1-carboxylate]
